Assay results from PubChem BioAssay (NCI).
“And” between values parts separate entries of the source, which are not always exact repeats. Identical values can stand only once.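 Following 48 hours of exposure in 96-well plates, responses at five concentrations were used to interpolate endpoints linearly. Abbreviation: GI50, concentration required for 50% inhibition of growth. TGI: concentration producing complete growth inhibition.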

Columns and labels:
Assay in all cases: NCI tumour cell line growth inhibition, 48 h
[1] = tested on: A498 renal
[2] = tested on: COLO 205 colon
[3] = tested on: HCT-15 colon
[4] = tested on: K-562 leukemia
[5] = tested on: MDA-MB-231 breast
[6] = tested on: NCI-H522 lung
[7] = tested on: PC-3 prostate
[8] = tested on: SNB-75 CNS
[9] = tested on: T-47D breast
[10] = tested on: SK-MEL-2 melanoma

Row | Structure (SMILES) | TGI [1] | TGI [2] [µM] | TGI [3] [µM] | TGI [4] [µM] | TGI [5] [µM] | TGI [6] [µM] | TGI [7] [µM] | TGI [8] [µM] | TGI [9] [µM] | GI50 [1] | GI50 [2] | GI50 [3] | GI50 [4] | GI50 [5] | GI50 [6] | GI50 [7] | GI50 [8] [µM] | GI50 [9] [µM] | GI50 [10] [µM] | TGI [10] [µM]
1 | O=S(=O)(NC1CCCCC1)c1ccc2c(c1)OCCOCCOCCOCCO2 | > 100 µM | > 100 | > 100 | > 100 | > 100 | > 100 | > 100 | > 100 | > 100 |  |  |  |  |  |  |  |  |  |  | 
2 | CO/N=C(\COc1ccc2c(=O)c3ccccc3oc2c1)c1ccccc1 | 47.7 µM | > 100 | > 100 | > 100 | 57.1 | > 100 | > 100 | > 100 | > 100 | 20.3 µM | > 100 µM | 51.9 µM | 72.1 µM | 25.2 µM | 33.4 µM | 35 µM | 68.8 | > 100 |  | 
3 | Cc1ccc(/C=C(\C#N)c2cc3ccccc3n2C)cc1 | 0.808 µM | > 43.5 | > 100 | > 100 | > 100 | 16.2 | > 100 |  | > 100 | 0.217 µM | 0.41 µM | 0.303 µM | 0.153 µM | 0.671 µM | 0.269 µM | 0.403 µM |  | 0.587 |  | 
4 | COc1ccc2c(c1)[n+](=O)c(C(=O)c1cccs1)c(C(F)(F)F)n2[O-] |  | > 50 |  | > 50 | 25.4 | 12.8 | 18.6 | > 50 | 29.8 |  | 7.49 µM |  | 2.56 µM | 7.38 µM | 2 µM | 2.42 µM | 9.11 | 5.26 | 10.8 | > 50
5 | COc1ccc2c(c1)/C(=C\c1ccncc1)C(=O)N2 |  | 44.7 | 13.1 | 9.56 | 36.7 | 9.18 | > 100 |  | > 100 |  | 11.9 µM | 2.97 µM | 3.41 µM | 17.2 µM | 4 µM | 25 µM |  | 22.3 | 6.12 | 23.6
6 | COc1ccc(-c2cc(=O)n(-c3nc4ccccc4[nH]3)[nH]2)cc1OC | 8.72 µM | > 100 | > 100 | 25.7 | > 100 | 9.14 | > 100 | 81.1 |  | 2.33 µM | 35.8 µM | 3.7 µM | 3.73 µM | 19.5 µM | 2.96 µM | 3.8 µM | 4.99 |  | 4.77 | 23.6
7 | Cc1cn2c(/C=C3/C(=O)Nc4c3ccc3ccccc43)c(C(F)(F)F)nc2s1 | > 100 µM | 1.9 | > 100 | 14.1 |  | > 100 | > 100 | > 100 | > 100 | 1.7 µM | 0.398 µM | 0.618 µM | 0.483 µM |  | 0.584 µM | 1.24 µM | 0.582 | 2.88 | 1.06 | > 100
8 | CCCn1c2c(c3c(O)cccc31)C(=O)c1ccccc1-2 |  | > 100 | > 100 | > 100 | 73.8 | > 100 | 36 |  | > 100 |  | > 100 µM | 34.1 µM | > 100 µM | 22.1 µM | 23 µM | 12.6 µM |  | 10 | 87 | > 100
9 | CNC(=O)NCC1OC(n2cnc3c(NC(=O)Nc4ccccc4)ncnc32)C(O[Si](C)(C)C(C)(C)C)C1O[Si](C)(C)C(C)(C)C (stereo not drawn) | 4.96 µM | 3.36 | > 100 |  | 6.12 | 7.14 | > 100 | 34.1 | 10.3 | 2.03 µM | 1.89 µM | 3.62 µM |  | 2.61 µM | 2.39 µM | 2.69 µM | 2.43 | 2.87 | 2.45 | 5.54
10 | N#C/C(=C/C=C/c1ccco1)C(N)=O |  | > 10 | > 10 |  | > 10 | > 10 | > 10 | > 10 | > 10 |  |  |  |  |  |  |  |  |  |  | > 10
11 | Cc1ccc(/C=C/c2c(C(=O)/C=C/c3ccccc3)c(C)nc3ccccc23)cc1 | 3.23 µM | 3.67 | 3.24 | 5.38 |  | 3.29 | 5.05 |  | 4.32 | 1.75 µM | 1.6 µM | 1.32 µM | 1.73 µM |  | 1.4 µM | 1.84 µM |  | 1.28 |  | 
12 | COc1cc2c(cc1OC)-c1ncc3c(OC)ccc(OC)c3c1C2 |  | > 100 | > 100 | 82 | > 100 | 31.8 | > 100 | > 100 | > 100 |  | 42.7 µM | 9.93 µM | 12.3 µM | > 100 µM | 2.94 µM | 26.5 µM | > 100 | 29 | 27.3 | 79
13 | COc1cc(/C=C/c2ccc(C)cc2)cc(OC)c1OC |  | 13.2 | 20.1 | > 100 | > 100 | 5.7 | 11.4 | 8.05 | 20.6 |  |  |  |  |  |  |  |  |  |  | > 31.6
14 | Nc1ccn(C2CC(F)C(CO)O2)c(=O)n1 (stereo not drawn) |  | > 100 | > 100 | > 100 | > 100 | > 100 | > 100 | > 100 | > 100 |  | > 100 µM | > 100 µM | > 100 µM | > 100 µM | > 100 µM | > 100 µM | > 100 | > 100 | > 100 | > 100
15 | O=C(O)C[C@H](O)C[C@H](O)/C=C/c1c(C2CC2)nc2ccccc2c1-c1ccc(F)cc1 | 0.908 µM and 0.226 µM | > 100 | > 100 | > 100 |  |  | > 100 |  | > 100 | 0.202 µM and 0.036 µM | 43.3 µM and 8.98 µM | 6.16 µM and 0.616 µM | 6.4 µM and 7.73 µM | 0.287 µM and 0.0564 µM | 1.38 µM and 0.633 µM | 0.508 µM and 0.423 µM |  |  | 4.06 | > 100
16 | COc1ccc(-c2c(C)c(C(=O)O)nc(-c3ccc4c(O)c(OC)c5c(c4n3)=NC(C)(C)N=5)c2N)c(O)c1OC |  | 77.1 | > 100 | 47.9 | > 100 | 24.5 | > 100 | 11.4 | > 100 |  |  |  |  |  |  |  |  |  |  | 41.4
17 | C=C(C)[C@@H]1CCC=C2CC[C@]3(C)[C@H](CC[C@@H]4[C@@]5(C)CCCNC(C)(C)[C@@H]5CC[C@]43C)[C@H]21 | 26.9 µM | 3.65 |  |  | 3.31 | 5.64 | 6.21 | 3.94 | 4.83 | 11.7 µM | 1.9 µM |  |  | 1.77 µM | 2.28 µM | 2.31 µM | 1.67 | 1.77 | 2.34 | 5.5
18 | C=CC(=O)N1C/C(=C\c2ccc(Cl)c(Cl)c2)C(=O)/C(=C/c2ccc(Cl)c(Cl)c2)C1 | 1.89 µM | 0.243 | 0.201 | 0.28 |  | 0.302 |  | 0.676 |  |  |  |  |  |  |  |  |  |  |  | 1.43
19 | CCOC(=O)NC(=O)c1cn(CCN2CCN(C(=O)CNC(=O)CNC(=O)Cn3cc(C(=O)NC(=O)OCC)c(=O)[nH]c3=O)CC2)c(=O)[nH]c1=O | > 100 µM | > 100 | > 100 | > 100 |  | > 100 |  | > 100 |  |  |  |  |  |  |  |  |  |  |  | > 100
20 | Oc1c(C(Nc2ccccc2Br)c2ccccc2)ccc2cccnc12 (stereo not drawn) | 25.6 µM | 36.6 | 27.3 | > 100 | 58.9 | 16.6 | > 100 | 48.6 | 73.1 | 2.04 µM | 2.75 µM | 0.672 µM | 2.3 µM | 3.9 µM | 2.39 µM | 3.92 µM | 2.82 | 3.77 |  | 
21 | O=[N+]([O-])c1ccc(NN=C2CN3CCN(C2)c2ccccc23)c([N+](=O)[O-])c1 | > 100 µM | > 100 | > 100 | > 100 | > 100 | > 100 | > 100 |  | > 100 |  |  |  |  |  |  |  |  |  |  | 
22 | O=c1c2c([nH]c3nccn13)CCC2 | 8.91 µM | > 10 | > 10 | > 10 | > 10 |  | > 10 | > 10 | > 10 |  |  |  |  |  |  |  |  |  |  | > 10
23 | C1=C(c2ccccc2)C(N2CCOCC2)Oc2ccccc21 (stereo not drawn) | 92.3 µM | > 100 | > 100 | > 100 | > 100 | > 100 | > 100 | > 100 | > 100 |  |  |  |  |  |  |  |  |  |  | 
24 | CCC[CH2][Sn]([CH2]CCC)([O]C(=O)c1cc(OC)c(OC)cc1OC)[O][Sn]([CH2]CCC)([CH2]CCC)[O]C(=O)c1cc(OC)c(OC)cc1OC | 1.76 µM | 1.32 | 1.71 | 8.43 |  | 0.0556 |  | 0.7 |  | 0.508 µM | 0.381 µM | 0.497 µM | 0.0812 µM |  |  |  | 0.124 |  | 0.173 | 0.824
